These molecules were tested against unphosphorylated-BTK kinase domain (UP-BTK), GST-tagged human BTK (389-659aa) (Homo sapiens (Human), UniProt Q06187) (assay: BTK kinase Lanthascreen binding assay). Conditions: Lanthascreen tracer competition, 60 minutes incubation; pIC50 = negative log of the IC50 in molar.
In short: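 Values are pIC50, i.e. negative log of IC50 in molar, derived from concentration–response fitting. Each compound competes with a fluorescently labelled tracer for the unphosphorylated kinase domain.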

unphosphorylated-BTK kinase domain (UP-BTK), GST-tagged human BTK (389-659aa), sequence (Q06187 389-659): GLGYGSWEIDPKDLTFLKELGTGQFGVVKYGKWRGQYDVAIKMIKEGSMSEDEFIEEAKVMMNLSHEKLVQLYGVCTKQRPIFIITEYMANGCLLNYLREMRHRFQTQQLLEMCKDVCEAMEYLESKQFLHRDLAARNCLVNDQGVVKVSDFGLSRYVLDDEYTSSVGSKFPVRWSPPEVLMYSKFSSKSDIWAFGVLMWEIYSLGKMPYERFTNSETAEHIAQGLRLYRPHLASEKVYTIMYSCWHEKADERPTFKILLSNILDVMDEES

SMILES | BTK_I_binding pIC50
C=CC(=O)N1CCC[C@@H](NC(=O)c2sc3nccc4c3c2NC(=O)N4c2ccc(OC3CCC3)cc2C)C1 (single isomer, unassigned) [Example 609, (R)—N-(1-Acryloylpiperidin-3-yl)-5-(*S)-(4-cyclobutoxy-2-methylphenyl)-4-oxo-4,5-dihydro-3H-1-thia-3,5,8-triazaacenaphthylene-2-carboxamide] | 6.3
COc1ccccc1Oc1ccc(N2C(=O)Nc3c(C(=O)NC4CCN(C#N)CC4)sc4nccc2c34)c(C)c1 [Example 884, N-(1-Cyanopiperidin-4-yl)-5-(4-(2-methoxyphenoxy)-2-methylphenyl)-4-oxo-4,5-dihydro-3H-1-thia-3,5,8-triazaacenaphthylene-2-carboxamide] | 7.0
CC(=O)N1CCC[C@@H](NC(=O)c2sc3nccc4c3c2NC(=O)N4c2ccc(Oc3ccccn3)cc2)C1 [Example 808, (R)—N-(1-Acetylpiperidin-3-yl)-4-oxo-5-(4-(pyridin-2-yloxy)phenyl)-4,5-dihydro-3H-1-thia-3,5,8-triazaacenaphthylene-2-carboxamide] | <6

Same assay, conditions: Lanthascreen tracer competition, 60 minutes incubation; pIC50 = negative log of the IC50 in molar; read-out: BTK_I_binding pIC50 (converted)

SMILES | IC50
Cc1cc(OC2CCC2)ccc1N1C(=O)Nc2c(C(=O)N[C@@H]3CCCNC3)sc3nccc1c23 [Example 605, (R)-5-(4-cyclobutoxy-2-methylphenyl)-4-oxo-N-(piperidin-3-yl)-4,5-dihydro-3H-1-thia-3,5,8-triazaacenaphthylene-2-carboxamide] | 501 nM
Cc1cc(N2C(=O)Nc3c(C(=O)N[C@@H]4CCCNC4)sc4nccc2c34)cc(-c2ccccc2)n1 [Example 735, (R)-5-(2-Methyl-6-phenylpyridin-4-yl)-4-oxo-N-(piperidin-3-yl)-4,5-dihydro-3H-1-thia-3,5,8-triazaacenaphthylene-2-carboxamide] | > 1000 nM

Same assay, conditions: pIC50 = negative log of the IC50 in molar; 60 minutes incubation, 50 nM Tracer 236

SMILES | BTK_I_binding pIC50
CNCC(=O)N1CCC[C@@H](NC(=O)c2sc3nccc4c3c2NC(=O)N4c2ccc(Oc3ccccc3)cc2C)C1 (single isomer, unassigned) [Example 253, (R)-5-(*R)-(2-Methyl-4-phenoxyphenyl)-N-(1-(2-(methylamino)acetyl)piperidin-3-yl)-4-oxo-4,5-dihydro-3H-1-thia-3,5,8-triazaacenaphthylene-2-carboxamide] | 6.2
C=CC(=O)N1CC[C@@H](NC(=O)c2sc3nccc4c3c2NC(=O)N4c2ccc(OC3CCOCC3)cc2C)C1 [Example 270, (R)—N-(1-Acryloylpyrrolidin-3-yl)-5-(2-methyl-4-((tetrahydro-2H-pyran-4-yl)oxy)phenyl)-4-oxo-4,5-dihydro-3H-1-thia-3,5,8-triazaacenaphthylene-2-carboxamide] | 6.3
Cc1cc(Oc2ccccc2)ccc1N1C(=O)Nc2c(C(=O)N[C@@H]3CCCN(C(=O)CO)C3)sc3nccc1c23 [Example 124, (R)—N-(1-(2-Hydroxyacetyl)piperidin-3-yl)-5-(2-methyl-4-phenoxyphenyl)-4-oxo-4,5-dihydro-3H-1-thia-3,5,8-triazaacenaphthylene-2-carboxamide] | 7.4
Cc1cc(Oc2ccccc2)ccc1N1C(=O)Nc2c(C(=O)N[C@@H]3CCCN(C(=O)CCS(C)(=O)=O)C3)sc3nccc1c23 [Example 146, (R)-5-(2-Methyl-4-phenoxyphenyl)-N-(1-(3-(methylsulfonyl)propanoyl)piperidin-3-yl)-4-oxo-4,5-dihydro-3H-1-thia-3,5,8-triazaacenaphthylene-2-carboxamide] | 7.4
Cc1cc(Oc2ccccc2)ccc1N1C(=O)Nc2c(C(=O)NC3CNC3)sc3nccc1c23 [Example 252, N-(azetidin-3-yl)-5-(2-methyl-4-phenoxyphenyl)-4-oxo-4,5-dihydro-3H-1-thia-3,5,8-triazaacenaphthylene-2-carboxamide] | 6.4
COCCC(=O)N1C[C@H](NC(=O)c2sc3nccc4c3c2NC(=O)N4c2ccc(Oc3ccccc3)cc2C)[C@@H](O)C1 [Example 139, N-((3S,4S)-4-Hydroxy-1-(3-methoxypropanoyl)pyrrolidin-3-yl)-5-(2-methyl-4-phenoxyphenyl)-4-oxo-4,5-dihydro-3H-1-thia-3,5,8-triazaacenaphthylene-2-carboxamide] | 7.2
Cc1cc(Oc2ccccc2)ccc1N1C(=O)Nc2c(C(=O)NC[C@H]3CCCN3)sc3nccc1c23 [Example 276, (R)-5-(2-Methyl-4-phenoxyphenyl)-4-oxo-N-(pyrrolidin-2-ylmethyl)-4,5-dihydro-3H-1-thia-3,5,8-triazaacenaphthylene-2-carboxamide] | 6.3

Same assay, conditions: unphosphorylated-BTK kinase domain, 50 nM Tracer 236, 60 minutes; pIC50 = negative log of the IC50 in molar

SMILES | BTK_I_binding pIC50
CN1CCC[C@@H](NC(=O)c2sc3nccc4c3c2NC(=O)N4Cc2ccc(Oc3ccccc3)cc2)C1 [Example 411, (R)—N-(1-Methylpiperidin-3-yl)-4-oxo-5-(4-phenoxybenzyl)-4,5-dihydro-3H-1-thia-3,5,8-triazaacenaphthylene-2-carboxamide] | <5
C=CC(=O)N1CC[C@H](C(=O)Nc2sc3nccc4c3c2NC(=O)N4c2ccc(Oc3ccccc3)cc2C)C1 [Example 544, (S)-1-Acryloyl-N-(5-(2-methyl-4-phenoxyphenyl)-4-oxo-4,5-dihydro-3H-1-thia-3,5,8-triazaacenaphthylen-2-yl)pyrrolidine-3-carboxamide] | 7.0
CC(C)=C(Cl)C(=O)N1CCC[C@@H](NC(=O)c2sc3nccc4c3c2NC(=O)N4c2ccc(Oc3ccccc3)cc2C)C1 (single isomer, unassigned) [Example 439, (R)—N-(1-(2-Chloro-3-methylbut-2-enoyl)piperidin-3-yl)-5-(*R)-(2-methyl-4-phenoxyphenyl)-4-oxo-4,5-dihydro-3H-1-thia-3,5,8-triazaacenaphthylene-2-carboxamide] | 5.7
Cc1cc(Oc2ccccc2)ccc1N1C(=O)Nc2c(C(=O)N[C@@H]3CNC(=O)C3)sc3nccc1c23 (single isomer, unassigned) [Example 469, (*S)-5-(*S)-(2-Methyl-4-phenoxyphenyl)-4-oxo-N-(5-oxopyrrolidin-3-yl)-4,5-dihydro-3H-1-thia-3,5,8-triazaacenaphthylene-2-carboxamide] | 7.1
C=CC(=O)N1C[C@H](NC(=O)c2sc3nccc4c3c2NC(=O)N4c2ccc(Oc3ccccc3)cc2)[C@@H](F)C1 [Example 543, N-((3S,4S)-1-Acryloyl-4-fluoropyrrolidin-3-yl)-4-oxo-5-(4-phenoxyphenyl)-4,5-dihydro-3H-1-thia-3,5,8-triazaacenaphthylene-2-carboxamide] | 7.5
C=CC(=O)N1CCC[C@@H](NC(=O)c2sc3nccc4c3c2NC(=O)N4c2cnc(Oc3ccccc3)nc2)C1 [Example 556, (R)—N-(1-Acryloylpiperidin-3-yl)-4-oxo-5-(2-phenoxypyrimidin-5-yl)-4,5-dihydro-3H-1-thia-3,5,8-triazaacenaphthylene-2-carboxamide] | 7.5
O=C(N[C@@H]1CCCNC1)c1sc2nccc3c2c1NC(=O)N3c1cc(Cl)cc(Cl)c1 [Example 330, (R)-5-(3,5-Dichlorophenyl)-4-oxo-N-(piperidin-3-yl)-4,5-dihydro-3H-1-thia-3,5,8-triazaacenaphthylene-2-carboxamide] | 5.6
C=CC(=O)N1CCC[C@@H](NC(=O)c2sc3nccc4c3c2NC(=O)N4c2ccc(C(C)(C)C)cc2)C1 [Example 334, (R)—N-(1-Acryloylpiperidin-3-yl)-5-(4-(tert-butyl)phenyl)-4-oxo-4,5-dihydro-3H-1-thia-3,5,8-triazaacenaphthylene-2-carboxamide] | 5.5
C=CC(=O)N1CC[C@@H](N(C)C(=O)c2sc3nccc4c3c2NC(=O)N4c2ccc(Oc3ccccc3)cc2C)C1 (single isomer, unassigned) [Example 441, (R)—N-(1-Acryloylpyrrolidin-3-yl)-N-methyl-5-(*S)-(2-methyl-4-phenoxyphenyl)-4-oxo-4,5-dihydro-3H-1-thia-3,5,8-triazaacenaphthylene-2-carboxamide] | 5.9
C=CC(=O)N1CCC[C@@H](NC(=O)c2sc3nccc4c3c2NC(=O)N4c2ccc(OC)c(C(F)(F)F)c2)C1 [Example 455, (R)—N-(1-Acryloylpiperidin-3-yl)-5-(4-methoxy-3-(trifluoromethyl)phenyl)-4-oxo-4,5-dihydro-3H-1-thia-3,5,8-triazaacenaphthylene-2-carboxamide] | <5
COCC(=O)N1CCC[C@@H](NC(=O)c2sc3nccc4c3c2NC(=O)N4c2ccc(Oc3ccccc3)cc2)C1 [Example 576, (R)—N-(1-(2-Methoxyacetyl)piperidin-3-yl)-4-oxo-5-(4-phenoxyphenyl)-4,5-dihydro-3H-1-thia-3,5,8-triazaacenaphthylene-2-carboxamide] | 7.3
Cc1cc(Oc2ccccc2)ccc1N1C(=O)Nc2c(C(=O)N[C@@H]3CCCN(C(=O)/C(C#N)=C/C(C)(C)C)C3)sc3nccc1c23 (single isomer, unassigned) [Example 398, (R,E)-N-(1-(2-Cyano-4,4-dimethylpent-2-enoyl)piperidin-3-yl)-5-(*R)-(2-methyl-4-phenoxyphenyl)-4-oxo-4,5-dihydro-3H-1-thia-3,5,8-triazaacenaphthylene-2-carboxamide] | 6.6

Same assay, conditions: unphosphorylated-BTK kinase domain, 50 nM Tracer 236, 60 minutes; pIC50 = negative log of the IC50 in molar; read-out: BTK_I_binding pIC50 (converted)

SMILES | IC50
[2H]c1c([2H])c([2H])c(Oc2ccc(N3C(=O)Nc4c(C(=O)N[C@@H]5CCCN(C([2H])([2H])[2H])C5)sc5nccc3c45)c(C)c2)c([2H])c1[2H] [Example 380, (R)-5-(2-Methyl-4-(2,3,4,5,6-pentadeuteriophenoxy)phenyl)-N-(1-(trideuteriomethyl)piperidin-3-yl)-4-oxo-4,5-dihydro-3H-1-thia-3,5,8-triazaacenaphthylene-2-carboxamide] | 158 nM

Reference: patent US10800792B2, “Inhibitors of Bruton's tyrosine kinase and method of their use” (JANSSEN PHARMACEUTICA NV, priority 2015, dated 2020)
